Consider three compounds from US4932871A, “Rapid method for preparing chromogenic alpha-amylase substrate compounds at high preparative yields” (Miles Inc., priority 1987, dated 1990).

Where “and” joins values, the source holds several entries; their conditions need not be identical. Equal values may be shown once.

A short description of data set [1]: Solubility in phosphate buffered solution. The conditions noted are these: phosphate buffered solution (pH 7.4). It counts as physicochemical. From the text: The resulting glucoside has an absorbance (λmax) of 438 nm (yellow), an extinction coefficient of 27,400, and is soluble in a phosphate buffered solution (pH 7.4). […] Accordingly, such compound provides a very advantageous substrate for a secondary enzyme, such as β-D-glucosidase, in an assay system for α-amylase.

A further data set relates to β-D-glucosidase. Nature of the data set: Hydrolysis of the glucoside substrate by β-D-glucosidase (Kcat, Km). It counts as biochemical. The conditions noted are these: 50 mM phosphate buffered solution (pH 7.4) containing 5.0 mM MgCl2.
Data set [2] relates to α-amylase. Nature of the data set: Analytical test device for the detection of α-amylase (filter paper impregnated with DMA-G7 reagent). The conditions noted are these: between 180 and 200 seconds, three aliquots. It counts as biochemical. How it is done:
A sheet of Whatman 54 filter paper (Whatman, Inc., Clifton, N.J., USA) was immersed into a solution comprising the liquid α-amylase detection reagent prepared according to Example 3, 0.1% Triton X-100 (Sigma Chemical Co., St. Louis, Mo., USA) and 0.5% carboxycellulose, and dried.
Analytical test devices were prepared by mounting 0.5 cm wide ×1.0 cm long segment of the aforementioned impregnated filter paper onto and along the edge of one surface of 0.5 cm×8.125 cm polystyrene supports (Tricite®, Dow Chemical Co., Midland, Mich., USA) previously laminated with a 2 mm strip of Double Stick® double-faced adhesive tape (3M Company, St. Paul, Minn., USA).
Three 30 μL aliquots of undiluted serum containing 39 IU/L, 78 IU/L, 117 IU/L, 157 IU/L, 235 IU/L, and 313 IU/L, respectively, of α-amylase were applied, independently, to a test device and the rate of color change produced by the liberated chromogen on each device was measured at 630 nm on a Seralyzer® reflectance photometer (Miles Inc., Elkhart, Ind., USA) from between 0 seconds and 240 seconds after the serum sample was added to each test device.

For data set [3], the system named is α-amylase. Nature of the data set: Liquid analytical test system for the detection of α-amylase (DMA-G7, α-glucosidase, β-glucosidase). It counts as biochemical. Conditions: average of three consecutive readings between 3 and 6 minutes. How it is done:
A liquid α-amylase detection reagent was prepared by combining 1.8 mM DMA-G7 prepared according to Example 2, 38 units of α-glucosidase and 20 units of β-glucosidase in 1.0 mL of buffered solution comprising 50 mM PIPES, 50 mM NaCl, and 5.0 mM calcium chloride (pH 7.0). Amylase control serum (0.025 mL) containing 37 IU/L, 175 IU/L, and 313 IU/L, respectively, of α-amylase were added to the detection reagent, independently, and incubated at 37° C. The enzymatic action of α-amylase on the substrate compound in each of the mixtures liberated the shorter chain chromogenic maltooligosaccharide compounds thereof (e.g., DMA-G2 to DMA-G4) which, in turn, were enzymatically acted upon by the α-glucosidase and β-glucosidaseto liberate the optically active form or anion of the 7-hydroxy-9,9-dimethyl- 9H-acridin-2-one chromogen. The rate of color change produced by the liberated chromogen in each of the mixtures was measured at 634 nm on a Cary 219 spectrophotometer (Varian Associates, Inc., Sonnyvale, Calif., USA) from between 1 and 9 minutes after each of the serum samples were added to the detection reagent (Table 2/FIG. 4).

As a reminder, the Km is the concentration of substrate that gives half-maximal velocity. As to `CC1(C)C2=CC(=O)C=CC2=Nc2ccc(O[C@@H]3O[C@H](CO)[C@@H](O)[C@H](O)[C@H]3O)cc21` [DMA-G1, 7-β-D-glucopyranosyloxy-9,9-dimethyl-9H-acridin-2-one], in data set [1], the solubility entry is reported as “soluble”. Also, in the data set on β-D-glucosidase, the “rate at which the enzyme cleaves the substrate (Kcat)” value is recorded as 1.32×10^4 mol min.^-1 /mol. active site. Also, the Km with β-D-glucosidase (read-out: binding constant (Km)) turned out to be 170 µM.

As for `CC1(C)C2=CC(=O)C=CC2=Nc2ccc(O)cc21` [liberated chromogen anion, 7-hydroxy-9,9-dimethyl-9H-acridin-2-one], the solubility entry in data set [1] was “soluble”.

As to `CC1(C)C2=CC(=O)C=CC2=Nc2ccc(O[C@@H]3O[C@H](CO)[C@@H](O[C@H]4O[C@H](CO)[C@@H](O[C@H]5O[C@H](CO)[C@@H](O[C@H]6O[C@H](CO)[C@@H](O[C@H]7O[C@H](CO)[C@@H](O[C@H]8O[C@H](CO)[C@@H](O[C@H]9O[C@H](CO)[C@@H](O)[C@H](O)[C@H]9O)[C@H](O)[C@H]8O)[C@H](O)[C@H]7O)[C@H](O)[C@H]6O)[C@H](O)[C@H]5O)[C@H](O)[C@H]4O)[C@H](O)[C@H]3O)cc21` [DMA-G7, 7-β-maltoheptaosyloxy-9,9-dimethyl-acridin-2-one], the “Reactivity (linear regression of L(R), reflectance at 630 nm)” value with α-amylase [2] (39 IU/L α-amylase in undiluted serum) was 0.384 × 10^-2 and 0.373 × 10^-2 and 0.359 × 10^-2; in the data set on α-amylase [2] (78 IU/L α-amylase in undiluted serum), 0.957 × 10^-2 and 0.941 × 10^-2 and 0.954 × 10^-2; in the data set with α-amylase [2] (117 IU/L α-amylase in undiluted serum), 1.450 × 10^-2 and 1.510 × 10^-2 and 1.430 × 10^-2; in the data set with α-amylase [2] (157 IU/L α-amylase in undiluted serum) it was 1.781 × 10^-2 and 1.999 × 10^-2 and 1.886 × 10^-2; in the data set on α-amylase [2] (235 IU/L α-amylase in undiluted serum) it was 2.560 × 10^-2 and 2.596 × 10^-2 and 2.610 × 10^-2; in the data set on α-amylase [2] (313 IU/L α-amylase in undiluted serum), 2.961 × 10^-2 and 2.989 × 10^-2 and 2.916 × 10^-2. The “α-amylase reactivity, rate of color change at 634 nm” value stood at 0.011 Absorbance/Minute with α-amylase [3] (37 IU/L α-amylase), 0.062 Absorbance/Minute in the data set with α-amylase [3] (175 IU/L α-amylase) and 0.109 Absorbance/Minute with α-amylase [3] (313 IU/L α-amylase).
